System: MV-4-11 cells
Assay: Gene expression microarray analysis (Affymetrix PrimeView) and GSEA
Assay type: cell-based, human
Parameters: RFU PODN (11730768_x_at) / Fold change /veh PODN (11730768_x_at) / RFU LINC00158 (11744669_a_at) / Fold change /veh LINC00158 (11744669_a_at) / RFU DUSP10 (11751237_a_at) / Fold change /veh DUSP10 (11751237_a_at) / RFU ID3 (11757404_x_at) / Fold change /veh ID3 (11757404_x_at) / RFU PLEKHG5 (11737974_s_at) / Fold change /veh PLEKHG5 (11737974_s_at) / RFU LRRC4B (11730491_at) / Fold change /veh LRRC4B (11730491_at) / RFU GIMAP4 (11747438_a_at) / Fold change /veh GIMAP4 (11747438_a_at) / RFU KRT8 (11758183_x_at) / Fold change /veh KRT8 (11758183_x_at) / RFU CNN1 (11734310_a_at) / Fold change /veh CNN1 (11734310_a_at) / RFU VPS37D (11726825_at) / Fold change /veh VPS37D (11726825_at) / RFU C10orf10 (11716522_x_at) / Fold change /veh C10orf10 (11716522_x_at) / RFU KIR2DL2 /// KIR2DL4 /// KIR2DL5A /// KIR2DL5B /// KIR2DS1 /// KIR2DS2 /// KIR2DS3 /// KIR2DS4 /// KIR3DL3 /// KIR3DL3 /// KIR3DS1 (11738374_at) / Fold change /veh KIR2DL2 /// KIR2DL4 /// KIR2DL5A /// KIR2DL5B /// KIR2DS1 /// KIR2DS2 /// KIR2DS3 /// KIR2DS4 /// KIR3DL3 /// KIR3DL3 /// KIR3DS1 (11738374_at) / RFU C1QL1 (11718748_at) / Fold change /veh C1QL1 (11718748_at) / RFU TMPRSS4 (11747572_a_at) / Fold change /veh TMPRSS4 (11747572_a_at) / RFU HAMP (11756126_x_at) / Fold change /veh HAMP (11756126_x_at) / RFU RNFT2 (11725882_a_at) / Fold change /veh RNFT2 (11725882_a_at) / RFU NR4A2 (11747474_a_at) / Fold change /veh NR4A2 (11747474_a_at) / RFU ABCC12 (11746883_a_at) / Fold change /veh ABCC12 (11746883_a_at) / RFU TMEM136 (11760407_x_at) / Fold change /veh TMEM136 (11760407_x_at) / RFU CLDN22 /// WWC2 (11732394_at) / Fold change /veh CLDN22 /// WWC2 (11732394_at) / RFU HLA-DPB1 (11760878_x_at) / Fold change /veh HLA-DPB1 (11760878_x_at) / RFU SPINT1 (11716480_a_at) / Fold change /veh SPINT1 (11716480_a_at) / RFU GAP43 (11754022_s_at) / Fold change /veh GAP43 (11754022_s_at) / RFU A4GNT (11735810_at) / Fold change /veh A4GNT (11735810_at) / RFU PRB3 (11715151_x_at) / Fold change /veh PRB3 (11715151_x_at) / RFU TUBB4B (11761932_at) / Fold change /veh TUBB4B (11761932_at) / RFU CAPN14 (11732068_a_at) / Fold change /veh CAPN14 (11732068_a_at) / RFU TMCC2 (11721928_a_at) / Fold change /veh TMCC2 (11721928_a_at) / RFU IRGQ (11745062_a_at) / Fold change /veh IRGQ (11745062_a_at) / RFU FAM174B (11720279_a_at) / Fold change /veh FAM174B (11720279_a_at) / RFU TMPRSS4 (11748680_a_at) / Fold change /veh TMPRSS4 (11748680_a_at) / RFU FAM212B (11763350_a_at) / Fold change /veh FAM212B (11763350_a_at) / RFU PLEKHG5 (11743358_a_at) / Fold change /veh PLEKHG5 (11743358_a_at) / RFU ZSCAN30 (11745921_a_at) / Fold change /veh ZSCAN30 (11745921_a_at) / RFU CMKLR1 (11741424_a_at) / Fold change /veh CMKLR1 (11741424_a_at) / RFU LOC101060620 /// MAPK8IP1 (11723275_at) / Fold change /veh LOC101060620 /// MAPK8IP1 (11723275_at) / RFU SPTSSB (11747773_x_at) / Fold change /veh SPTSSB (11747773_x_at) / RFU PRSS12 (11739890_at) / Fold change /veh PRSS12 (11739890_at) / RFU BIN1 (11741810_x_at) / Fold change /veh BIN1 (11741810_x_at) / RFU WNT11 (11732464_a_at) / Fold change /veh WNT11 (11732464_a_at) / RFU C10orf10 (11716521_a_at) / Fold change /veh C10orf10 (11716521_a_at) / RFU C5orf56 (11738089_at) / Fold change /veh C5orf56 (11738089_at) / RFU CYB561 (11721691_x_at) / Fold change /veh CYB561 (11721691_x_at) / RFU ANKRD19P (11752326_a_at) / Fold change /veh ANKRD19P (11752326_a_at) / RFU OR2T12 /// OR2T33 /// OR2T8 (11738714_s_at) / Fold change /veh OR2T12 /// OR2T33 /// OR2T8 (11738714_s_at) / RFU VCAN (11748164_a_at) / Fold change /veh VCAN (11748164_a_at) / RFU JSRP1 (11732532_at) / Fold change /veh JSRP1 (11732532_at) / RFU KRTAP10-11 (11738290_x_at) / Fold change /veh KRTAP10-11 (11738290_x_at) / RFU MYO3A (11730013_a_at) / Fold change /veh MYO3A (11730013_a_at) / RFU EBF3 (11725865_a_at) / Fold change /veh EBF3 (11725865_a_at) / RFU CAMK2N1 (11719241_x_at) / Fold change /veh CAMK2N1 (11719241_x_at) / RFU C5orf56 (11738088_a_at) / Fold change /veh C5orf56 (11738088_a_at) / RFU OLFML3 (11715873_a_at) / Fold change /veh OLFML3 (11715873_a_at) / RFU LOC100653217 /// NTM (11731650_a_at) / Fold change /veh LOC100653217 /// NTM (11731650_a_at) / RFU MAPK11 (11762145_a_at) / Fold change /veh MAPK11 (11762145_a_at) / RFU FIZ1 (11724087_x_at) / Fold change /veh FIZ1 (11724087_x_at) / RFU OASL (11726364_x_at) / Fold change /veh OASL (11726364_x_at) / RFU SOX15 (11748057_x_at) / Fold change /veh SOX15 (11748057_x_at) / RFU CD79A (11719716_a_at) / Fold change /veh CD79A (11719716_a_at) / RFU HIST1H1D (11736915_at) / Fold change /veh HIST1H1D (11736915_at) / RFU CASKIN2 (11723855_a_at) / Fold change /veh CASKIN2 (11723855_a_at) / RFU LOC730098 (11760151_x_at) / Fold change /veh LOC730098 (11760151_x_at) / RFU OR4N2 (11742367_at) / Fold change /veh OR4N2 (11742367_at) / RFU PRRT2 (11749266_a_at) / Fold change /veh PRRT2 (11749266_a_at) / RFU SNX32 (11753110_a_at) / Fold change /veh SNX32 (11753110_a_at) / RFU CDHR5 (11726645_a_at) / Fold change /veh CDHR5 (11726645_a_at) / RFU RCAN1 (11760418_a_at) / Fold change /veh RCAN1 (11760418_a_at) / RFU FAM167A (11723789_a_at) / Fold change /veh FAM167A (11723789_a_at) / RFU FAM26E (11764081_at) / Fold change /veh FAM26E (11764081_at) / RFU ISYNA1 (11749810_s_at) / Fold change /veh ISYNA1 (11749810_s_at) / RFU ACY1 (11761880_at) / Fold change /veh ACY1 (11761880_at) / RFU 11764098_at / Fold change /veh 11764098_at / RFU SAMD14 (11745864_x_at) / Fold change /veh SAMD14 (11745864_x_at) / RFU NPB (11741838_a_at) / Fold change /veh NPB (11741838_a_at) / RFU TMPRSS6 (11731388_a_at) / Fold change /veh TMPRSS6 (11731388_a_at) / RFU KRTAP10-2 (11738614_at) / Fold change /veh KRTAP10-2 (11738614_at) / RFU ARHGAP8 /// PRR5-ARHGAP8 (11727945_x_at) / Fold change /veh ARHGAP8 /// PRR5-ARHGAP8 (11727945_x_at) / RFU KRTAP5-7 /// NADSYN1 (11734609_at) / Fold change /veh KRTAP5-7 /// NADSYN1 (11734609_at) / RFU RASL12 (11751679_a_at) / Fold change /veh RASL12 (11751679_a_at) / RFU CDKN2B (11736163_a_at) / Fold change /veh CDKN2B (11736163_a_at) / RFU PRF1 (11729649_at) / Fold change /veh PRF1 (11729649_at) / RFU, ZNF638 /// ZNF638-IT1 / Fold change vs veh, ZNF638 /// ZNF638-IT1 / RFU, PANK3 / Fold change vs veh, PANK3 / RFU, SH3YL1 / Fold change vs veh, SH3YL1 / RFU, ZEB2 / Fold change vs veh, ZEB2 / RFU, NRIP1 / Fold change vs veh, NRIP1 / RFU, PTTG1IP / Fold change vs veh, PTTG1IP / RFU, CAPN2 / Fold change vs veh, CAPN2 / RFU, MED14 / Fold change vs veh, MED14 / RFU, SNORA58 / Fold change vs veh, SNORA58 / RFU, C1orf63 / Fold change vs veh, C1orf63 / RFU, LRRFIP1 / Fold change vs veh, LRRFIP1 / RFU, NDUFAF7 / Fold change vs veh, NDUFAF7 / RFU, SLC12A2 / Fold change vs veh, SLC12A2 / RFU, IBTK / Fold change vs veh, IBTK / RFU, ESF1 / Fold change vs veh, ESF1 / Fold change vs veh, TMEM50B / RFU, TAOK1 / Fold change vs veh, TAOK1 / RFU, ACBD3 / Fold change vs veh, ACBD3 / RFU, TMA16 / Fold change vs veh, TMA16 / RFU, RWDD3 / Fold change vs veh, RWDD3 / RFU, BCAT1 / Fold change vs veh, BCAT1 / RFU, EDEM3 / Fold change vs veh, EDEM3 / RFU, TMEM33 / Fold change vs veh, TMEM33 / RFU, WDR75 / Fold change vs veh, WDR75 / RFU, AHCTF1 / Fold change vs veh, AHCTF1 / RFU, TFRC / Fold change vs veh, TFRC / RFU, ZDHHC17 / Fold change vs veh, ZDHHC17 / RFU, NOM1 / Fold change vs veh, NOM1 / RFU, ARL8B / Fold change vs veh, ARL8B / RFU, ZBTB11 / Fold change vs veh, ZBTB11 / RFU, TAMM41 / Fold change vs veh, TAMM41 / RFU, KIAA1704 /// LOC100996395 / Fold change vs veh, KIAA1704 /// LOC100996395 / RFU, ING1 / Fold change vs veh, ING1 / RFU, TRMT61B / Fold change vs veh, TRMT61B / RFU, FUBP3 / Fold change vs veh, FUBP3 / RFU, TP53 / Fold change vs veh, TP53 / RFU, TNKS2 / Fold change vs veh, TNKS2 / RFU, ZFP14 / Fold change vs veh, ZFP14 / RFU, ACTR2 / Fold change vs veh, ACTR2 / RFU, PPP3R1 / Fold change vs veh, PPP3R1 / RFU, PIK3R1 / Fold change vs veh, PIK3R1 / RFU, HNRNPA1 / Fold change vs veh, HNRNPA1 / RFU, RNF170 / Fold change vs veh, RNF170 / RFU, ZNF28 / Fold change vs veh, ZNF28 / RFU, RNGTT / Fold change vs veh, RNGTT / RFU, OGT / Fold change vs veh, OGT / RFU, BRD1 / Fold change vs veh, BRD1 / RFU, MARS / Fold change vs veh, MARS / RFU, ZNF655 / Fold change vs veh, ZNF655 / RFU, FAHD1 / Fold change vs veh, FAHD1 / RFU, BDP1 / Fold change vs veh, BDP1 / RFU, LRRCC1 / Fold change vs veh, LRRCC1 / RFU, ARID1A / Fold change vs veh, ARID1A / RFU, ZNF146 / Fold change vs veh, ZNF146 / RFU, ZNF330 / Fold change vs veh, ZNF330 / RFU, GPN3 / Fold change vs veh, GPN3 / RFU, C9orf123 / Fold change vs veh, C9orf123 / RFU, N4BP2L2 / Fold change vs veh, N4BP2L2 / RFU, ARFIP1 / Fold change vs veh, ARFIP1 / RFU, FAM179B / Fold change vs veh, FAM179B / RFU, BCL10 / Fold change vs veh, BCL10 / RFU, UHRF1BP1L / Fold change vs veh, UHRF1BP1L / RFU, BET1 / Fold change vs veh, BET1 / RFU, CNOT2 / Fold change vs veh, CNOT2 / RFU, ZNF268 / Fold change vs veh, ZNF268 / Fold change vs veh, ZNF507 / RFU, DGCR2 / Fold change vs veh, DGCR2 / RFU, WDSUB1 / Fold change vs veh, WDSUB1 / Fold change vs veh, HSP90B1 /// MIR3652 / RFU, ADSS / Fold change vs veh, ADSS / RFU, GK / Fold change vs veh, GK / RFU, ZNF148 / Fold change vs veh, ZNF148 / RFU, TAF9 / Fold change vs veh, TAF9 / RFU, SLC1A5 / Fold change vs veh, SLC1A5 / RFU, SLMO2 / Fold change vs veh, SLMO2 / RFU, ABCC4 / Fold change vs veh, ABCC4 / RFU, LOC101060439 /// RAP1B / Fold change vs veh, LOC101060439 /// RAP1B / RFU, RFX7 / Fold change vs veh, RFX7 / RFU, GTPBP10 / Fold change vs veh, GTPBP10 / RFU, CNEP1R1 / Fold change vs veh, CNEP1R1 / RFU, BIVM-ERCC5 /// ERCC5 / Fold change vs veh, BIVM-ERCC5 /// ERCC5 / RFU, ILF3 / Fold change vs veh, ILF3 / RFU 11762660_at / Fold change /veh 11762660_at / RFU VCAN (11757783_s_at) / Fold change /veh VCAN (11757783_s_at) / RFU DDX43 (11728927_at) / Fold change /veh DDX43 (11728927_at) / RFU KRT8 (11758188_x_at) / Fold change /veh KRT8 (11758188_x_at) / RFU NKD1 (11759106_at) / Fold change /veh NKD1 (11759106_at) / RFU SRD5A1 (11742802_a_at) / Fold change /veh SRD5A1 (11742802_a_at) / RFU TPSAB1 /// TPSB2 (11721975_s_at) / Fold change /veh TPSAB1 /// TPSB2 (11721975_s_at) / RFU GSTM3 (11746129_a_at) / Fold change /veh GSTM3 (11746129_a_at) / RFU IL23R (11737362_x_at) / Fold change /veh IL23R (11737362_x_at) / RFU TMEM51 (11727254_a_at) / Fold change /veh TMEM51 (11727254_a_at) / RFU PIWIL2 (11732686_x_at) / Fold change /veh PIWIL2 (11732686_x_at) / RFU ORM1 (11744905_x_at) / Fold change /veh ORM1 (11744905_x_at) / RFU CCDC152 (11743942_at) / Fold change /veh CCDC152 (11743942_at) / RFU ECM1 (11717891_a_at) / Fold change /veh ECM1 (11717891_a_at) / RFU IL23R (11748794_a_at) / Fold change /veh IL23R (11748794_a_at) / RFU TNFAIP8L3 (11732012_x_at) / Fold change /veh TNFAIP8L3 (11732012_x_at) / RFU MBOAT4 (11741988_at) / Fold change /veh MBOAT4 (11741988_at) / RFU 11764193_at / Fold change /veh 11764193_at / RFU TMEM53 (11763286_at) / Fold change /veh TMEM53 (11763286_at) / RFU MAGEB2 (11727129_at) / Fold change /veh MAGEB2 (11727129_at) / RFU TMEM200A (11744735_a_at) / Fold change /veh TMEM200A (11744735_a_at) / RFU CCDC152 (11751479_a_at) / Fold change /veh CCDC152 (11751479_a_at) / RFU FAM211A (11726209_a_at) / Fold change /veh FAM211A (11726209_a_at) / RFU RGS16 (11746705_a_at) / Fold change /veh RGS16 (11746705_a_at) / RFU VCAN (11755009_s_at) / Fold change /veh VCAN (11755009_s_at) / RFU RHOB (11743442_s_at) / Fold change /veh RHOB (11743442_s_at) / RFU RGS16 (11720943_a_at) / Fold change /veh RGS16 (11720943_a_at) / RFU RGS16 (11720944_at) / Fold change /veh RGS16 (11720944_at) / RFU, VPS4B / Fold change vs veh, VPS4B / RFU, CREB1 / Fold change vs veh, CREB1 / RFU, DNAJC13 / Fold change vs veh, DNAJC13 / RFU, GNAQ / Fold change vs veh, GNAQ / RFU, CDK5R1 / Fold change vs veh, CDK5R1 / RFU, ZRANB3 / Fold change vs veh, ZRANB3 / RFU, CUL4A / Fold change vs veh, CUL4A / RFU, CCNY / Fold change vs veh, CCNY / RFU, UFL1 / Fold change vs veh, UFL1 / RFU, COG3 / Fold change vs veh, COG3 / RFU, DIAPH2 / Fold change vs veh, DIAPH2 / RFU, SKA2 / Fold change vs veh, SKA2 / RFU, AFF3 / Fold change vs veh, AFF3 / RFU, LMF1 / Fold change vs veh, LMF1 / RFU, IPO11 / Fold change vs veh, IPO11 / RFU, DFFB / Fold change vs veh, DFFB / RFU, FOXP1 / Fold change vs veh, FOXP1 / RFU, CARD8 / Fold change vs veh, CARD8 / RFU, STRN3 / Fold change vs veh, STRN3 / RFU, ADK / Fold change vs veh, ADK / RFU, RASSF2 / Fold change vs veh, RASSF2 / RFU, WIPF1 / Fold change vs veh, WIPF1 / RFU, LARP1B / Fold change vs veh, LARP1B / RFU, RASA1 / Fold change vs veh, RASA1 / RFU, RB1 / Fold change vs veh, RB1 / RFU, PPFIA1 / Fold change vs veh, PPFIA1 / RFU, MAT2A / Fold change vs veh, MAT2A / RFU, CCT5 / Fold change vs veh, CCT5 / RFU, WDR92 / Fold change vs veh, WDR92 / RFU, CUX1 / Fold change vs veh, CUX1 / RFU, TTC7A / Fold change vs veh, TTC7A / RFU, TMEM135 / Fold change vs veh, TMEM135 / RFU, DEPTOR / Fold change vs veh, DEPTOR / RFU, CPM / Fold change vs veh, CPM / RFU, DNAJB6 / Fold change vs veh, DNAJB6 / RFU, CACNA2D3 / Fold change vs veh, CACNA2D3 / RFU, DTX4 / Fold change vs veh, DTX4 / RFU, TFCP2 / Fold change vs veh, TFCP2 / RFU, GMCL1 /// GMCL1P1 / Fold change vs veh, GMCL1 /// GMCL1P1 / RFU, AEBP2 / Fold change vs veh, AEBP2 / RFU, SNHG1 /// SNORD22 /// SNORD25 /// SNORD26 /// SNORD27 /// SNORD28 /// SNORD29 /// SNORD31 / Fold change vs veh, SNHG1 /// SNORD22 /// SNORD25 /// SNORD26 /// SNORD27 /// SNORD28 /// SNORD29 /// SNORD31 / Fold change (Aza/veh), C12orf56 (ProbeSet 11735607_a_at) / Fold change (ACY-1035/veh), C12orf56 (ProbeSet 11735607_a_at) / Fold change (Aza/veh), FGFR1OP (ProbeSet 11751329_s_at) / Fold change (ACY-1035/veh), FGFR1OP (ProbeSet 11751329_s_at) / Fold change (Aza/veh), VPS36 (ProbeSet 11739960_a_at) / Fold change (ACY-1035/veh), VPS36 (ProbeSet 11739960_a_at) / RFU SYPL1 (11715823_x_at) / Fold change /veh SYPL1 (11715823_x_at) / RFU IGFBP7 (11715501_s_at) / Fold change /veh IGFBP7 (11715501_s_at) / RFU REEP3 (11722064_at) / Fold change /veh REEP3 (11722064_at) / RFU IGLL1 (11728026_x_at) / Fold change /veh IGLL1 (11728026_x_at): dose or concentration left out as unconfirmed
Conditions: ProbeSet 11747937_a_at; LIST D

Nc1ccc(-c2cccs2)cc1NC(=O)c1ccc2c(c1)cc(C1CC1)n2CCN1CCOCC1 [ACY-1035]
Fold change vs veh, DNAJB6: 0.86
